Legend:
human intact FGF23 = test: Intact FGF23 (iFGF23) over time, two-site ELISA, trials IDA-04/IDA-05; format: in vivo; details: single dose 1000 mg at baseline
Description: The trial was a randomized, open-label, comparative trial. Subjects with Iron Deficiency Anaemia (IDA) were randomized 1:1 to one treatment course of one of the following treatments: • Group A: iron isomaltoside 1000 (Monofer®, Pharmacosmos, Holbok, Denmark, termed iron isomaltoside in the following), 1000 mg at baseline • Group B: ferric carboxymaltose (Ferinject®/Injectafer®, Vifor Inc, Switzerland), 750 mg at baseline and day 7, cumulative dose: 1500 mg
The secondary safety endpoints were the following: • Incidence of s-phosphate below 1.0 mg/dL at any time from baseline to day 35 • Time with hypophosphatemia (i.e. time with s-phosphate <2.0 mg/dL) from baseline to day 35 • Proportion of subjects with hypophosphatemia at day 35 • Absolute [Δ] and relative [%] changes in s-phosphate from baseline to 1, 7, 8, 14, 21, and 35 • Fractional phosphate urinary excretion at 1, 7, 8, 14, 21, and 35 • Change in iFGF23, cFGF23, vitamin D (25, 1,25, 24,25), PTH, and ionized calcium from baseline to 1, 7, 8, 14, 21, and 35 • Type and incidence of AEs • Serious or severe hypersensitivity reaction starting on or after the first dose of randomized treatment (i.e. treatment emergent). The hypersensitivity terms were defined as standardised Medical Dictionary for Regulatory Activities query (SMQ) terms. […]
The following safety laboratory assessments were analysed: • S-phosphate: inorganic phosphorous forms an ammonium phosphomolybdate complex having the formula (NH4)3[PO4](MoO3)12 with ammonium molybdate in the presence of sulfuric acid. The complex was determined photometrically in the ultraviolet region (340 nm) of the spectrum using the Roche Modular and Cobas Analyzer. • iFGF23 and cFGF23: the human intact FGF23 was measured by the 2nd generation Elisa kit manufactured by Immonotropics, Inc, San Clemente, CA. […] The human C-terminal FGF23 was measured by the Elisa kit manufactured by Immonotropics, Inc, San Clemente, CA. […] After evaporation under nitrogen, the residue was reconstituted and analyzed using Liquid Chromatography (LC) with Tandem Mass Spectrometric detection (MS/MS). […] A direct relationship exists between the amount of PTH present in the patient sample and the amount of relative light units (RLUs) detected by the system. • Ionized calcium: Measured by the IL GEM Premier 3500 PAK cartridge. […]

[1] = clinical trials and case reports; Wolf et al., 2013; cited from earlier work

Row | change of the iFGF23 level (human intact FGF23) | Substance | risk for iFGF23-mediated reduction of serum phosphate levels and development of hypophosphatemia [1]
1 | essentially no change | iron isomaltoside 1000 [IIM] | 
2 |  | iron polymaltose | highest risk
3 |  | saccharated iron oxide | highest risk
